Like-named read-outs stand apart in the source and are kept apart here.
Experiments:
[1] = test system: 60 human tumor cell lines panel; test: NCI-60 anticancer screen, whole panel (means and ranges over the cell lines); format: cell-based; settings: for activity at 10 µM: Homo sapiens, 48 h, dose of 10 μM
[2] = test system: OVCAR-3; test: cells; settings: Homo sapiens
[3] = test system: K-562; test: NCI-60 anticancer screen (SRB; single dose and five doses); settings: Homo sapiens
[4] = test system: SR; test: as above; settings: Homo sapiens
[5] = test system: A549/ATCC; test: as above; settings: Homo sapiens
[6] = test system: EKVX; test: as above; settings: Homo sapiens
[7] = test system: HOP-92; test: as above; settings: Homo sapiens
[8] = test system: NCI-H522; test: as above; settings: Homo sapiens
[9] = test system: HT29; test: as above; settings: Homo sapiens
[10] = test system: KM12; test: as above; settings: Homo sapiens
[11] = test system: SW-620; test: as above; settings: Homo sapiens
[12] = test system: SF-539; test: as above; settings: Homo sapiens
[13] = test system: SNB-75; test: as above; settings: Homo sapiens, SNB-75, 48 h, read-out: Growth Percentage
[14] = test system: MDA-MB-435; test: as above; settings: Homo sapiens
[15] = test system: SK-MEL-28; test: as above; settings: Homo sapiens
[16] = test system: IGROV1; test: as above; settings: Homo sapiens
[17] = test system: OVCAR-5; test: as above; settings: Homo sapiens
[18] = test system: NCI/ADR-RES; test: as above; settings: Homo sapiens
[19] = test system: SK-OV-3; test: as above; settings: Homo sapiens
[20] = test system: A498; test: as above; settings: Homo sapiens
[21] = test system: ACHN; test: as above; settings: Homo sapiens
[22] = test system: CAKI-1; test: as above; settings: Homo sapiens
[23] = test system: RXF 393; test: as above; settings: Homo sapiens
[24] = test system: SN12C; test: as above; settings: Homo sapiens
[25] = test system: PC-3; test: as above; settings: Homo sapiens
[26] = test system: DU-145; test: as above; settings: Homo sapiens
[27] = test system: MDA-MB-231/ATCC; test: as above; settings: Homo sapiens
[28] = test system: HS 578T; test: as above; settings: Homo sapiens
[29] = test system: CCRF-CEM; test: NCI-60 anticancer screen (SRB; single dose 10 μM and five doses); settings: Homo sapiens
[30] = five doses, mean graph midpoint over all cell lines
[31] = 48 h, read-out: Growth Percentage

SMILES: Cc1[nH]c(=S)sc1C(=O)/C=C/c1ccc([N+](=O)[O-])cc1 [2i, (E)-1-(4-Methyl-2-Thioxo-2,3-Dihydrothiazol-5-yl)-3-(4-Nitrophenyl)Prop-2-En-1-One]
- activity at 10 µM ([1]; mean over the tested cell lines, read-out: Mean growth percentage): 25.2%
- activity at 10 µM ([1]; range over the cell lines, read-out: growth percentages against most of the tested cells (lowest to highest)): -86.2 to 108%
- Log10GI50 _MID [1, 30]: -5.13 Molar
- Log10LC50 _MID [1, 30]: -4.25 Molar
- Log10TGI _MID [1, 30]: -4.62 Molar
- GI50 ([2]; OVCAR-3): 2.22 µM
- activity at 10 µM ([2]; OVCAR-3, 48 h, read-out: Growth Percentage): -6%
- CC50 ([2]; OVCAR-3, read-out: LC50): 16.6 µM
- IC (TGI) ([2]; OVCAR-3, read-out: TGI): 5.28 µM
- GI50 ([3]; K562): 3.5 µM
- activity at 10 µM ([3]; K562, 48 h, read-out: Growth Percentage): 12.3%
- CC50 ([3]; K562, read-out: LC50): > 100 µM
- IC (TGI) ([3]; K562, read-out: TGI): > 100 µM
- GI50 [4]: 2.86 µM
- activity at 10 µM [4, 31]: -4.81%
- CC50 ([4]; read-out: LC50): > 100 µM
- IC (TGI) ([4]; read-out: TGI): > 100 µM
- GI50 ([5]; A549): 17 µM
- activity at 10 µM ([5]; A549, 48 h, read-out: Growth Percentage): 75.7%
- CC50 ([5]; A549, read-out: LC50): 69 µM
- IC (TGI) ([5]; A549, read-out: TGI): 34.2 µM
- GI50 [6]: 16.4 µM
- activity at 10 µM [6, 31]: 74.7%
- CC50 ([6]; read-out: LC50): 58.1 µM
- IC (TGI) ([6]; read-out: TGI): 30.9 µM
- GI50 ([7]; HOP-92): 12.2 µM
- activity at 10 µM ([7]; HOP-92, 48 h, read-out: Growth Percentage): 57.6%
- CC50 ([7]; HOP-92, read-out: LC50): 64.4 µM
- IC (TGI) ([7]; HOP-92, read-out: TGI): 28 µM
- GI50 ([8]; NCI-H522): 9.37 µM
- activity at 10 µM ([8]; NCI-H522, 48 h, read-out: Growth Percentage): 33%
- CC50 ([8]; NCI-H522, read-out: LC50): 51.5 µM
- IC (TGI) ([8]; NCI-H522, read-out: TGI): 22.5 µM
- GI50 ([9]; HT-29): 10.7 µM
- activity at 10 µM ([9]; HT-29, 48 h, read-out: Growth Percentage): 62.8%
- CC50 ([9]; HT-29, read-out: LC50): 68.7 µM
- IC (TGI) ([9]; HT-29, read-out: TGI): 27.1 µM
- GI50 ([10]; KM12): 3.8 µM
- activity at 10 µM ([10]; KM12, 48 h, read-out: Growth Percentage): -72.5%
- CC50 ([10]; KM12, read-out: LC50): 40 µM
- IC (TGI) ([10]; KM12, read-out: TGI): 13.6 µM
- GI50 ([11]; SW-620): 3.59 µM
- activity at 10 µM ([11]; SW-620, 48 h, read-out: Growth Percentage): -44.8%
- CC50 ([11]; SW-620, read-out: LC50): 44.2 µM
- IC (TGI) ([11]; SW-620, read-out: TGI): 13.9 µM
- GI50 ([12]; SF-539): 2.31 µM
- activity at 10 µM ([12]; SF-539, 48 h, read-out: Growth Percentage): -25.2%
- IC (TGI) ([12]; SF-539, read-out: TGI): 7.02 µM
- activity at 10 µM [13]: 36%
- GI50 ([14]; MDA-MB-435): 7.39 µM
- activity at 10 µM ([14]; MDA-MB-435, 48 h, read-out: Growth Percentage): 3.76%
- CC50 ([14]; MDA-MB-435, read-out: LC50): 50.9 µM
- IC (TGI) ([14]; MDA-MB-435, read-out: TGI): 21.1 µM
- GI50 ([15]; SK-MEL-28): 13.7 µM
- activity at 10 µM ([15]; SK-MEL-28, 48 h, read-out: Growth Percentage): 23.9%
- CC50 ([15]; SK-MEL-28, read-out: LC50): 52.5 µM
- IC (TGI) ([15]; SK-MEL-28, read-out: TGI): 26.8 µM
- GI50 ([16]; IGROV-1): 4.43 µM
- activity at 10 µM ([16]; IGROV-1, 48 h, read-out: Growth Percentage): 16.1%
- CC50 ([16]; IGROV-1, read-out: LC50): 50.8 µM
- IC (TGI) ([16]; IGROV-1, read-out: TGI): 14.9 µM
- GI50 ([17]; OVCAR-5): 17.8 µM
- activity at 10 µM ([17]; OVCAR-5, 48 h, read-out: Growth Percentage): 110%
- CC50 ([17]; OVCAR-5, read-out: LC50): 58.2 µM
- IC (TGI) ([17]; OVCAR-5, read-out: TGI): 32.2 µM
- GI50 [18]: 14.9 µM
- activity at 10 µM [18, 31]: -4.45%
- CC50 ([18]; read-out: LC50): 82.8 µM
- IC (TGI) ([18]; read-out: TGI): 35.2 µM
- GI50 ([19]; SK-OV-3): 18.6 µM
- activity at 10 µM ([19]; SK-OV-3, 48 h, read-out: Growth Percentage): 108%
- CC50 ([19]; SK-OV-3, read-out: LC50): 76.9 µM
- IC (TGI) ([19]; SK-OV-3, read-out: TGI): 37.8 µM
- GI50 ([20]; A498): 15.5 µM
- activity at 10 µM ([20]; A498, 48 h, read-out: Growth Percentage, A498, dose of 10 μM): 105%
- CC50 ([20]; A498, read-out: LC50): 55.3 µM
- IC (TGI) ([20]; A498, read-out: TGI): 29.3 µM
- GI50 [21]: 11.3 µM
- activity at 10 µM [21, 31]: 3.88%
- CC50 ([21]; read-out: LC50): 48.4 µM
- IC (TGI) ([21]; read-out: TGI): 23.3 µM
- GI50 ([22]; CAKI-1): 13.9 µM
- activity at 10 µM ([22]; CAKI-1, 48 h, read-out: Growth Percentage): 31.1%
- CC50 ([22]; CAKI-1, read-out: LC50): 52.7 µM
- IC (TGI) ([22]; CAKI-1, read-out: TGI): 27.1 µM
- GI50 ([23]; RXF 393): 4.88 µM
- activity at 10 µM ([23]; RXF 393, 48 h, read-out: Growth Percentage): -4.35%
- CC50 ([23]; RXF 393, read-out: LC50): 44.8 µM
- IC (TGI) ([23]; RXF 393, read-out: TGI): 18.6 µM
- GI50 [24]: 6.06 µM
- activity at 10 µM [24, 31]: 18.6%
- CC50 ([24]; read-out: LC50): 44.7 µM
- IC (TGI) ([24]; read-out: TGI): 19.3 µM
- GI50 ([25]; PC-3): 10.3 µM
- activity at 10 µM ([25]; PC-3, 48 h, read-out: Growth Percentage): 51.3%
- CC50 ([25]; PC-3, read-out: LC50): > 100 µM
- IC (TGI) ([25]; PC-3, read-out: TGI): 37.3 µM
- GI50 ([26]; DU-145): 3.41 µM
- activity at 10 µM ([26]; DU-145, 48 h, read-out: Growth Percentage): 21.4%
- CC50 ([26]; DU-145, read-out: LC50): 34.5 µM
- IC (TGI) ([26]; DU-145, read-out: TGI): 11 µM
- GI50 ([27]; MDA-MB-231): 12 µM
- activity at 10 µM ([27]; MDA-MB-231, 48 h, read-out: Growth Percentage): 10.8%
- CC50 ([27]; MDA-MB-231, read-out: LC50): 51.5 µM
- IC (TGI) ([27]; MDA-MB-231, read-out: TGI): 24.8 µM
- GI50 [28]: 13 µM
- activity at 10 µM [28, 31]: 68.1%
- CC50 ([28]; read-out: LC50): 80.9 µM
- IC (TGI) ([28]; read-out: TGI): 32.4 µM
- GI50 [29]: 4.56 µM
- activity at 10 µM [29, 31]: -7.25%
- IC (TGI) ([29]; read-out: TGI): > 100 µM
